# Source: ChEMBL document CHEMBL4177690, “(E)-3-(3,4,5-Trimethoxyphenyl)-1-(pyridin-4-yl)prop-2-en-1-one, a heterocyclic chalcone is a potent and selective CYP1A1 inhibitor and cancer chemopreventive agent” (Bioorg Med Chem Lett, 2017)
# Columns and labels:
# Cytochrome P450 1A2 [1] = target: T1, Cytochrome P450 1A2 (Homo sapiens, UniProt P05177); assay: Inhibition of human CYP1A2 expressed in yeast microsomal membranes using 3-cyano-7-ethoxycoumarin as substrate measured after 10 mins by fluorescence assay; type: ADME, cell membranes, Microsomal Membrane
# T1 sequence (P05177 whole entry): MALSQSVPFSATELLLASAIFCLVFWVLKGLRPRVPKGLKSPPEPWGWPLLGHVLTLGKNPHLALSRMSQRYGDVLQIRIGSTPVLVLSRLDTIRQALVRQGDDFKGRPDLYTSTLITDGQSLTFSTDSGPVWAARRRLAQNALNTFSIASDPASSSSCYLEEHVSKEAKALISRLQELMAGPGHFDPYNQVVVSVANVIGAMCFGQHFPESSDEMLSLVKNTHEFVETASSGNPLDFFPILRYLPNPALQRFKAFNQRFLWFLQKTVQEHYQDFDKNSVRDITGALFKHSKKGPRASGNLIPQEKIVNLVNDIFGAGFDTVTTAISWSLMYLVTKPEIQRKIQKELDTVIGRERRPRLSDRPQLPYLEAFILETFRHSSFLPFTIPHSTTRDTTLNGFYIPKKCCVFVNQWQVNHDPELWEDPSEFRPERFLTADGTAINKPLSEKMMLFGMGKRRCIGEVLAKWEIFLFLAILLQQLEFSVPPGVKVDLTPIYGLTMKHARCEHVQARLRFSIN
# Cytochrome P450 2D6 [2] = target: T2, Cytochrome P450 2D6 (Homo sapiens, UniProt P10635); assay: Inhibition of human CYP2D6 expressed in yeast microsomal membranes using 7-ethoxy-methyloxy-3-cyanocoumarin as substrate measured after 10 mins by fluorescence assay; type: ADME, cell membranes, Microsomal Membrane
# Cytochrome P450 1A1 [3] = target: T3, Cytochrome P450 1A1 (Homo sapiens, UniProt P04798); assay: Inhibition of recombinant human CYP1A1 expressed in HEK293 cells using 7-ethoxyresorufin as substrate pretreated for 30 mins followed by substrate addition measured for 60 mins by fluorescence assay; type: cell-based
# T3 sequence (P04798 whole entry): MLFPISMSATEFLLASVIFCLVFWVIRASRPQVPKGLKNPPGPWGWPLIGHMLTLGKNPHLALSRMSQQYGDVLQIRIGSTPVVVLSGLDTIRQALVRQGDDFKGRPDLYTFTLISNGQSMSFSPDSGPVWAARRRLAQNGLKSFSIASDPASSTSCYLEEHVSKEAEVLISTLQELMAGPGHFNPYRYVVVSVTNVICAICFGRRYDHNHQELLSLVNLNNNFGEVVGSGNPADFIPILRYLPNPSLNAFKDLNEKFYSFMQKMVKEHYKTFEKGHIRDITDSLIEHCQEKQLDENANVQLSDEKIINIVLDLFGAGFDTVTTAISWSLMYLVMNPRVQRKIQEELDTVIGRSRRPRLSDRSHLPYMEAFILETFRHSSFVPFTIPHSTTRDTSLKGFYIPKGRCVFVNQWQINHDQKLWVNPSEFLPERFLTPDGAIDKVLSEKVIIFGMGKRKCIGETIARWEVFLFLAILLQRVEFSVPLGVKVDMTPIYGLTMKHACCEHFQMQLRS
# Cytochrome P450 2D6 [4] = target: T2, Cytochrome P450 2D6; assay: Inhibition of recombinant human CYP2D6 expressed in HEK293 cells using 7-ethoxy-methyloxy-3-cyanocoumarin as substrate pretreated for 30 mins followed by substrate addition measured for 60 mins by fluorescence assay; type: ADME, cell-based
# Cytochrome P450 1A1 [5] = target: T3, Cytochrome P450 1A1; assay: Inhibition of human CYP1A1 expressed in yeast microsomal membranes using 7-ethoxyresorufin as substrate measured after 10 mins by fluorescence assay; type: cell membranes
# Cytochrome P450 2C19 [6] = target: T4, Cytochrome P450 2C19 (Homo sapiens, UniProt P33261); assay: Inhibition of recombinant human CYP2C19 expressed in HEK293 cells using 3-cyano-7-ethoxycoumarin as substrate pretreated for 30 mins followed by substrate addition measured for 60 mins by fluorescence assay; type: ADME
# Cytochrome P450 1A2 [7] = target: T1, Cytochrome P450 1A2; assay: Inhibition of recombinant human CYP1A2 expressed in HEK293 cells using 3-cyano-7-ethoxycoumarin as substrate pretreated for 30 mins followed by substrate addition measured for 60 mins by fluorescence assay; type: ADME
# Cytochrome P450 2C19 [8] = target: T4, Cytochrome P450 2C19; assay: Inhibition of human CYP2C19 expressed in yeast microsomal membranes using 3-cyano-7-ethoxycoumarin as substrate measured after 10 mins by fluorescence assay; type: ADME, cell membranes, Microsomal Membrane
# Cytochrome P450 2C9 [9] = target: T5, Cytochrome P450 2C9 (Homo sapiens, UniProt P11712); assay: Inhibition of recombinant human CYP2C9 expressed in HEK293 cells using 3-cyano-7-ethoxycoumarin as substrate pretreated for 30 mins followed by substrate addition measured for 60 mins by fluorescence assay; type: ADME
# Cytochrome P450 3A4 [10] = target: T6, Cytochrome P450 3A4 (Homo sapiens, UniProt P08684); assay: Inhibition of recombinant human CYP3A4 expressed in HEK293 cells using dibenzylfluorescein as substrate pretreated for 30 mins followed by substrate addition measured for 60 mins by fluorescence assay; type: ADME
# Cytochrome P450 1B1 [11] = target: T7, Cytochrome P450 1B1 (Homo sapiens, UniProt Q16678); assay: Inhibition of recombinant human CYP1B1 expressed in HEK293 cells using 7-ethoxyresorufin as substrate pretreated for 30 mins followed by substrate addition measured for 60 mins by fluorescence assay; type: cell-based
# T7 sequence (Q16678 whole entry): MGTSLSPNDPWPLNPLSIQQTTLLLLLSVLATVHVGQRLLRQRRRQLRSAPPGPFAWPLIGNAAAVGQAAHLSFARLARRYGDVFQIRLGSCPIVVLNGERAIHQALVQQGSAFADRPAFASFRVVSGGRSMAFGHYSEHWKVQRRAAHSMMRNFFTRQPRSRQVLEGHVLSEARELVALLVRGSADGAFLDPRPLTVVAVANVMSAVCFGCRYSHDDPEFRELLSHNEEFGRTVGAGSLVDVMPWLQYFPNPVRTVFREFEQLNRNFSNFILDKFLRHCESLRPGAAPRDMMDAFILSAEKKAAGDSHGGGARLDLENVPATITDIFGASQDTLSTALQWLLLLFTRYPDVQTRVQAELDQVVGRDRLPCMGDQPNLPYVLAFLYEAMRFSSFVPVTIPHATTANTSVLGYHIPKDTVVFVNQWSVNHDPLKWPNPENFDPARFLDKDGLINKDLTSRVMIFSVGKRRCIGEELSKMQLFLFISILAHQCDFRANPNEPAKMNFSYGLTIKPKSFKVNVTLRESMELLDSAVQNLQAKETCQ
# Cytochrome P450 2C9 [12] = target: T5, Cytochrome P450 2C9; assay: Inhibition of human CYP2C9 expressed in yeast microsomal membranes using 3-cyano-7-ethoxycoumarin as substrate measured after 10 mins by fluorescence assay; type: ADME, cell membranes, Microsomal Membrane
# Cytochrome P450 1B1 [13] = target: T7, Cytochrome P450 1B1; assay: Inhibition of human CYP1B1 expressed in yeast microsomal membranes using 7-ethoxyresorufin as substrate measured after 10 mins by fluorescence assay; type: cell membranes
# Cytochrome P450 3A4 [14] = target: T6, Cytochrome P450 3A4; assay: Inhibition of human CYP3A4 expressed in yeast microsomal membranes using dibenzylfluorescein as substrate measured after 10 mins by fluorescence assay; type: ADME, cell membranes, Microsomal Membrane
# Homo sapiens [15] = organism: Homo sapiens; assay: Selectivity ratio of IC50 for recombinant human CYP1A2 expressed in HEK293 cells to IC50 for recombinant human CYP1A1 expressed in HEK293 cells; type: cell-based
# Homo sapiens [16] = organism: Homo sapiens; assay: Selectivity ratio of IC50 for recombinant human CYP1B1 expressed in HEK293 cells to IC50 for recombinant human CYP1A1 expressed in HEK293 cells; type: cell-based
# [17] = target: T8, Aryl hydrocarbon receptor (Homo sapiens, UniProt P35869); assay: Antagonist activity at recombinant human eGFP-fused Ahr expressed in yeast cells co-expressing ARNT assessed as inhibition of benzo(a)pyrene-induced Ahr activation at 1 uM measured after 18 hrs by fluorescence assay; type: cell-based
# T8 sequence (P35869 whole entry): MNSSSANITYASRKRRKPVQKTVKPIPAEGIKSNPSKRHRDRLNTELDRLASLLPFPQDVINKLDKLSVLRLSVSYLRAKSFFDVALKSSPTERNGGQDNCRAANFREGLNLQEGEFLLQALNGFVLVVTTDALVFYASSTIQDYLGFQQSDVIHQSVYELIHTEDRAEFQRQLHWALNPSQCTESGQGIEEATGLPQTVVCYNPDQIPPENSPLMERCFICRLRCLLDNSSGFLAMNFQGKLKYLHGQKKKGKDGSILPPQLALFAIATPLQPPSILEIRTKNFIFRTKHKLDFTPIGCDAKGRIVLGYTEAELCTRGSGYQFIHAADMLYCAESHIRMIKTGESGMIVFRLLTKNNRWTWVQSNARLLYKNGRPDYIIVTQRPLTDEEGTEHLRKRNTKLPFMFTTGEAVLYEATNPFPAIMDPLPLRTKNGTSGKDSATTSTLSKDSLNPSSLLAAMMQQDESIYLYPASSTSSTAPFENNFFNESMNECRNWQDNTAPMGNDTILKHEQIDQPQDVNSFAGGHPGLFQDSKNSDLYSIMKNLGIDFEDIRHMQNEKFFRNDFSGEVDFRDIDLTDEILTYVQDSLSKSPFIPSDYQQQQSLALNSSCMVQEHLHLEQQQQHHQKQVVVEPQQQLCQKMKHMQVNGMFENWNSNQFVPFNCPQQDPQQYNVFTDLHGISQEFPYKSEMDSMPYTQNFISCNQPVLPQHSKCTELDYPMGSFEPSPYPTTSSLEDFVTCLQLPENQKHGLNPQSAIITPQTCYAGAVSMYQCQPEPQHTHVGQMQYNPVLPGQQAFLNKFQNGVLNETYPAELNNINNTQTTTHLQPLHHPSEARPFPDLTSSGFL
# T6 sequence (P08684 whole entry): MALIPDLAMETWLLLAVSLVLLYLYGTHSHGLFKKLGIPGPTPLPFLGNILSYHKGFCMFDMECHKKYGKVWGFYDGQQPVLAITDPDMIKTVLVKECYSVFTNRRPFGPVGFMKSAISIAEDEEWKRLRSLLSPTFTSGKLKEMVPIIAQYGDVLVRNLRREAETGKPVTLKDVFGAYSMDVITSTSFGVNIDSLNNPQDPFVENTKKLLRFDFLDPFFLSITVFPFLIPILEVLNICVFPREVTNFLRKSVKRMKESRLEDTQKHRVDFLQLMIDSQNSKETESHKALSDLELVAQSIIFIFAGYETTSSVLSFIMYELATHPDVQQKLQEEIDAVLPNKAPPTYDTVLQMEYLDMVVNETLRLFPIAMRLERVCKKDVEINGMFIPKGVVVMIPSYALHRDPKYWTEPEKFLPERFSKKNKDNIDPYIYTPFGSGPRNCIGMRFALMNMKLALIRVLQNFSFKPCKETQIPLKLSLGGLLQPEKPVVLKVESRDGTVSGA
# T5 sequence (P11712 whole entry): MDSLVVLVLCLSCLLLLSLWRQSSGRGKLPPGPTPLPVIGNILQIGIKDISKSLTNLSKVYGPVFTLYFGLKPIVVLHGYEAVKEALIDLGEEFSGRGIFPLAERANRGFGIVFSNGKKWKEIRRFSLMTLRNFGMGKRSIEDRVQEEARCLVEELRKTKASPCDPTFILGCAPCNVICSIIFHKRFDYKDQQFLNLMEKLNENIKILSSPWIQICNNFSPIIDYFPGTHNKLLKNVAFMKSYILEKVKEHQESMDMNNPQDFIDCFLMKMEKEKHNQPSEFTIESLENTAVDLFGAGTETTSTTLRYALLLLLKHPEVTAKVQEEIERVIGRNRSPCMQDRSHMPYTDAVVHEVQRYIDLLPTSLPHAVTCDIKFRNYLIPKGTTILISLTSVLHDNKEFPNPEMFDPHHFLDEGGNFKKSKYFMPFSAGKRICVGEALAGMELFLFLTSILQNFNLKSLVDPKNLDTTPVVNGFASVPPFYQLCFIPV
# T2 sequence (P10635 whole entry): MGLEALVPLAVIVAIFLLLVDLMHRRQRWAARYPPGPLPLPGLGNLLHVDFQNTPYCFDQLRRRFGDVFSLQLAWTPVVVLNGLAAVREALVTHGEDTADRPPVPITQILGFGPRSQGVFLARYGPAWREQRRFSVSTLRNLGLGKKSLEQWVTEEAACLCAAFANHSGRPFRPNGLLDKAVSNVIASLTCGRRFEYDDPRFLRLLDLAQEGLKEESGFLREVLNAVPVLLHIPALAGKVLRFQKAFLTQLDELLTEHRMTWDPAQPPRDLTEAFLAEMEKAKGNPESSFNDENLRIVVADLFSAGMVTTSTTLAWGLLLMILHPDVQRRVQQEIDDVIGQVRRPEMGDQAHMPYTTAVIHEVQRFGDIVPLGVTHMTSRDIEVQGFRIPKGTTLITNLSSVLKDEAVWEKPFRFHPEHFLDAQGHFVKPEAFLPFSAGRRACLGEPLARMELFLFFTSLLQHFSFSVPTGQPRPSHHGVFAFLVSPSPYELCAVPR
# T4 sequence (P33261 whole entry): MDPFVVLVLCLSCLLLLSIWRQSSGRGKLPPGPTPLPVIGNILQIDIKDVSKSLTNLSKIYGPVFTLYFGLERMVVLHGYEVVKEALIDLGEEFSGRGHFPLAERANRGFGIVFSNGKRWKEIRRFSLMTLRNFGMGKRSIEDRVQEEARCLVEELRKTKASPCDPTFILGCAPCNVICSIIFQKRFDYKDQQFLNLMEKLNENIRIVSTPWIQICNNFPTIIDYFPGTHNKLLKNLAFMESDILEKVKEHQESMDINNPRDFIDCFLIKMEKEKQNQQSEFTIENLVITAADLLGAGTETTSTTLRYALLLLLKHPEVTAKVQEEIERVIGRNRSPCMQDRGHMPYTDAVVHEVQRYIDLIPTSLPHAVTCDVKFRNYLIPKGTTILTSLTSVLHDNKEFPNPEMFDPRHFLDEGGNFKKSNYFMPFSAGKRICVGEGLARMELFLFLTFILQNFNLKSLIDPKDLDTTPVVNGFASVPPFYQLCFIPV
Compound,IC50 (Cytochrome P450 1A2 [1]),IC50 (Cytochrome P450 2D6 [2]),IC50 (Cytochrome P450 1A1 [3]),IC50 (Cytochrome P450 2D6 [4]),IC50 (Cytochrome P450 1A1 [5]),IC50 (Cytochrome P450 2C19 [6]),IC50 (Cytochrome P450 1A2 [7]),IC50 (Cytochrome P450 2C19 [8]),IC50 (Cytochrome P450 2C9 [9]),IC50 (Cytochrome P450 3A4 [10]),IC50 (Cytochrome P450 1B1 [11]),IC50 (Cytochrome P450 2C9 [12]),IC50 (Cytochrome P450 1B1 [13]),IC50 (Cytochrome P450 3A4 [14]),inhibition (INH) [17],Ratio IC50 (Homo sapiens [15]),Ratio IC50 (Homo sapiens [16])
COc1cccc(/C=C/C(=O)c2ccncc2)c1,20 nM,12 µM,620 nM,> 10 µM,590 nM,> 10 µM,20 nM,> 20 µM,> 10 µM,> 10 µM,60 nM,> 20 µM,54 nM,> 20 µM,–,–,–
COc1ccc(/C=C/C(=O)c2ccncc2)cc1,12000 nM,15 µM,6610 nM,> 10 µM,6310 nM,> 10 µM,12000 nM,> 20 µM,> 10 µM,> 10 µM,8520 nM,> 20 µM,7000 nM,> 20 µM,–,–,–
COc1ccc(/C=C/C(=O)c2ccncc2)c(OC)c1OC,104 nM,11 µM,1330 nM,> 10 µM,1410 nM,> 10 µM,200 nM,> 20 µM,> 10 µM,> 10 µM,22 nM,> 20 µM,32 nM,> 20 µM,Active,–,–

# The next lines start with results.
IC50 (Cytochrome P450 1A2 [1]),IC50 (Cytochrome P450 2D6 [2]),IC50 (Cytochrome P450 1A1 [3]),IC50 (Cytochrome P450 2D6 [4]),IC50 (Cytochrome P450 1A1 [5]),IC50 (Cytochrome P450 2C19 [6]),IC50 (Cytochrome P450 1A2 [7]),IC50 (Cytochrome P450 2C19 [8]),IC50 (Cytochrome P450 2C9 [9]),IC50 (Cytochrome P450 3A4 [10]),IC50 (Cytochrome P450 1B1 [11]),IC50 (Cytochrome P450 2C9 [12]),IC50 (Cytochrome P450 1B1 [13]),IC50 (Cytochrome P450 3A4 [14]),inhibition (INH) [17],Compound,Ratio IC50 (Homo sapiens [15]),Ratio IC50 (Homo sapiens [16])
2580 nM,12 µM,280 nM,> 10 µM,230 nM,> 10 µM,2210 nM,> 20 µM,> 10 µM,> 10 µM,610 nM,> 20 µM,698 nM,> 20 µM,–,CCOc1c(OC)cc(/C=C/C(=O)c2ccncc2)cc1OC,–,–
1190 nM,14 µM,92 nM,> 10 µM,92 nM,> 10 µM,1090 nM,> 20 µM,> 10 µM,> 10 µM,9920 nM,> 20 µM,8620 nM,> 20 µM,–,CCOc1cc(/C=C/C(=O)c2ccncc2)cc(OCC)c1OCC,< 10,< 10
1320 nM,17 µM,63 nM,> 10 µM,63 nM,> 10 µM,1530 nM,> 20 µM,> 10 µM,> 10 µM,4760 nM,> 20 µM,3810 nM,> 20 µM,–,CCOc1cc(/C=C/C(=O)c2ccncc2)cc(OC)c1OC,< 10,< 10
